{"source": "the supplement of paper PMC10307832", "assay_in_all_cases": "relative viability (nuclei count vs DMSO), 5 days (fraction); higher = more cells survive", "key": {"[1]": {"compound": "C1=CC2=NC=CN=C2C=C1/C=C/3\\C(=O)NC(=O)S3 + Nc1nc2[nH]cc(CCc3ccc(C(=O)N[C@@H](CCC(=O)O)C(=O)O)cc3)c2c(=O)[nH]1 [Pemetrexed] (partner 0.2 µM)", "summary_of_the_method": "(§1)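 Lung cancer cell lines, seeded in 1536-well plates, were treated the following day by pin tool with a single drug or with five library-drug doses (not always all listed) in √10 steps on top of a fixed anchor-drug dose. Cells were fixed and nuclei stained in one step after 5 days, and nuclei were counted. Relative viability is the nuclei count for treated wells divided by that for vehicle wells, reported as medians of duplicate plates.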"}, "BGJ398 + Decitabine": {"compound": "CCN1CCN(c2ccc(Nc3cc(N(C)C(=O)Nc4c(Cl)c(OC)cc(OC)c4Cl)ncn3)cc2)CC1 [BGJ398] + Nc1ncn([C@H]2C[C@H](O)[C@@H](CO)O2)c(=O)n1 [Decitabine] (partner 2 µM)", "summary_of_the_method": "as §1"}, "BGJ398 + Lapatinib": {"compound": "CCN1CCN(c2ccc(Nc3cc(N(C)C(=O)Nc4c(Cl)c(OC)cc(OC)c4Cl)ncn3)cc2)CC1 [BGJ398] + CS(=O)(=O)CCNCc1ccc(-c2ccc3ncnc(Nc4ccc(OCc5cccc(F)c5)c(Cl)c4)c3c2)o1 [Lapatinib] (partner 2 µM)", "summary_of_the_method": "as §1"}, "[2]": {"compound": "C1=CC2=NC=CN=C2C=C1/C=C/3\\C(=O)NC(=O)S3 + Cc1nc(NC(=O)N2CCC[C@H]2C(N)=O)sc1-c1ccnc(C(C)(C)C(F)(F)F)c1 [Alpelisib] (partner 2 µM)", "summary_of_the_method": "as §1"}}}
{"cell line": "UMC-11", "values": [{"measurement": "relative viability", "setting": "[1]; first compound 0.02 µM", "result": 0.775}, {"measurement": "relative viability", "setting": "[1]; first compound 0.06325 µM", "result": 0.816}, {"measurement": "relative viability", "setting": "[1]; first compound 0.2 µM", "result": 0.862}, {"measurement": "relative viability", "setting": "[1]; first compound 0.6325 µM", "result": 0.79}, {"measurement": "relative viability", "setting": "[1]; first compound 2 µM", "result": 0.887}, {"measurement": "relative viability", "setting": "BGJ398 + Decitabine; first compound 0.01 µM", "result": 0.504}, {"measurement": "relative viability", "setting": "BGJ398 + Decitabine; first compound 0.03162 µM", "result": 0.571}, {"measurement": "relative viability", "setting": "BGJ398 + Decitabine; first compound 0.1 µM", "result": 0.637}, {"measurement": "relative viability", "setting": "BGJ398 + Decitabine; first compound 0.3162 µM", "result": 0.652}, {"measurement": "relative viability", "setting": "BGJ398 + Decitabine; first compound 1 µM", "result": 0.365}, {"measurement": "relative viability", "setting": "BGJ398 + Lapatinib; first compound 0.01 µM", "result": 1.14}, {"measurement": "relative viability", "setting": "BGJ398 + Lapatinib; first compound 0.03162 µM", "result": 0.987}, {"measurement": "relative viability", "setting": "BGJ398 + Lapatinib; first compound 0.1 µM", "result": 0.991}, {"measurement": "relative viability", "setting": "BGJ398 + Lapatinib; first compound 0.3162 µM", "result": 0.924}, {"measurement": "relative viability", "setting": "BGJ398 + Lapatinib; first compound 1 µM", "result": 0.736}, {"measurement": "relative viability", "setting": "[2]; first compound 0.02 µM", "result": 0.987}, {"measurement": "relative viability", "setting": "[2]; first compound 0.06325 µM", "result": 1.19}, {"measurement": "relative viability", "setting": "[2]; first compound 0.2 µM", "result": 0.989}, {"measurement": "relative viability", "setting": "[2]; first compound 0.6325 µM", "result": 0.948}, {"measurement": "relative viability", "setting": "[2]; first compound 2 µM", "result": 0.932}]}
